Laboratory results reported in patent publication US9617330B2, “Chemorepulsion of cells” (Celtaxsys, Inc., priority 2006, dated 2017).

B1: S. typhimurium Flagellin: TLR ligand; accession M11332 (protein, UniProt P06179 2-495, looked up)
Flagellin: AQVINTNSLSLLTQNNLNKSQSALGTAIERLSSGLRINSAKDDAAGQAIANRFTANIKGLTQASRNANDGISIAQTTEGALNEINNNLQRVRELAVQSANSTNSQSDLDSIQAEITQRLNEIDRVSGQTQFNGVKVLAQDNTLTIQVGANDGETIDIDLKQINSQTLGLDTLNVQQKYKVSDTAATVTGYADTTIALDNSTFKASATGLGGTDQKIDGDLKFDDTTGKYYAKVTVTGGTGKDGYYEVSVDKTNGEVTLAGGATSPLTGGLPATATEDVKNVQVANADLTEAKAALTAAGVTGTASVVKMSYTDNNGKTIDGGLAVKVGDDYYSATQNKDGSISINTTKYTADDGTSKTALNKLGGADGKTEVVSIGGKTYAASKAEGHNFKAQPDLAEAAATTTENPLQKIDAALAQVDTLRSDLGAVQNRFNSAITNLGNTVNNLTSARSRIEDSDYATEVSNMSRAQILQQAGTSVLAQANQVPQNVLSLLR
B2: CCL15: chemokine (protein, UniProt Q16663 22-113, looked up)
C-C motif chemokine 15: QFTNDAETELMMSKLPLENPVVLNSFHFAADCCTSYISQSIPCSLMKSYFETSSECSKPGVIFLTKKGRQVCAKPSGPGVQDCMKKLKPYSI
B3: CXCL7: chemokine (protein, UniProt P02775 35-128, looked up)
Platelet basic protein: SSTKGQTKRNLAKGKEESLDSDLYAELRCMCIKTTSGIHPKNIQSLEVIGKGTHCNQVEVIATLKDGRKICLDPDAPRIKKIVQKKLAGDESAD
B4: CCL19: chemokine (protein, UniProt Q99731 22-98, looked up)
C-C motif chemokine 19: GTNDAEDCCLSVTQKPIPGYIVRNFHYLLIKDGCRVPAVVFTTLRGRQLCAPPDQPWVERIIQRLQRTSAKMKRRSS
B5: CCL8: chemokine (protein, UniProt P80075 24-99, looked up)
C-C motif chemokine 8: QPDSVSIPITCCFNVINRKIPIQRLESYTRITNIQCPKEAVIFKTKRGKEVCADPKERWVRDSMKHLDQIFQNLKP

What was measured:
Monocytes = experiment: High throughput transmigration assay (Example 9), chemorepulsion; type: cell-based, human; details: mean of three donors at concentration of highest activity, range 0.00125-1.25 μM
Description: (§1) An agent's repellent index is the ratio of chemorepulsion (CR) to spontaneous migration (SM) induced by the agent, i.e., [(CR)/(SM)]. […] For example, in calculating a RI for an agent, migratory responses including chemorepulsion (CR) and spontaneous migration (SM) may be measured over several decades or log scales of concentration. If, over any two consecutive measurements at concentrations which differ by at least 10 fold, the ratio of CR to SM at each of the two contiguous measurements is equal to or greater than 1.2, then the agent is considered a validated chemorepellent.
(§2) For primary human T cells, up to 80 ml of blood is drawn from a human donor in sodium heparin Vacutainer tubes (Becton-Dickinson). The blood (between 10 and 15 ml per tube) is then layered onto 30 ml of Lymphocyte Separation Medium (LSM) (Cellgro, Herndon, Va.) in a 50 ml conical centrifuge tube and centrifuged for 20 minutes at 2440×g in a swinging bucket rotor. After removing the majority of the plasma from the top of each tube, the peripheral blood mononucleocyte (PBMC) layer is removed and transferred to fresh 50 ml conical centrifuge tubes. The tubes are then filled to 50 ml with IMDM and centrifuged for 10 minutes at 500×g. All but approximately 5 ml of the supernatant is then removed and the pellet resuspended with 25 ml IMDM and the centrifugation repeated. After removal of the supernatant, the cells are resuspended and combined to one 50 ml tube (per subject) and brought to a total volume of 50 ml. The cells are then counted using a hemacytometer (Reichert). After centrifugation under the same conditions, the supernatant is removed and the cells processed using the appropriate Miltenyi Biotec (Auburn, Calif.) negative selection kit to enrich for the desired cell type according to manufacturers instructions. The resulting purified cells are then diluted to 50 ml with IMDM. After centrifugation at 500×g for 10 minutes, the supernatant is removed and the cells resuspended in 15 ml IMDM supplemented with 0.5% heat inactivated fetal calf serum (FCS) (ATCC, Manassas, Va.). After another centrifugation for 10 minutes at 500×g, the supernatant is again removed and the cells resuspended in 7 ml 0.5% FCS in IMDM (assay medium) and transferred to a 15 ml conical centrifuge tube. The cells are then quantitated using a hemacytometer. When enriching for monocytes, the concentration of cells is adjusted to 2×10^7 per ml by centrifugation and removal of the appropriate volume of assay medium. For all other cell types, the tube cap is replaced with one from a 25 cm^2 tissue culture flask (Corning) and the cells stored overnight in a humidified 37° C. incubator with 5% CO2. The concentration of the cells is adjusted as for monocytes just prior to transmigration assay of Example 9.
It is noted that this procedure may be used to isolate and/or purify monocytes. In the monocyte purification method, a further step is included for platelet removal via the use of CD61 microbeads also purchased from Miltenyi Biotec (Auburn, Calif.).
(§3) Migration away from a chemical or biological agent (chemorepulsion (CR)) was measured using ChemoTx plates (Neuroprobe). These plates contain a planar polycarbonate or polyester membrane that has been etched and perforated so that cells can move along the etched tracks and fall through perforation holes, enabling the cells to be collected and the number of migrated cells quantified (FIGS. 5-6). Several dilutions (normally 4 in 10-fold increments) are prepared of the agent of interest. For neutrophils, plates with 3 μm pore membranes are used, while for all other primary cell types, 5 μm pore membranes are used. Membranes may, or may not, be coated with polyvinylpyrrolidine (PVP) as a wetting agent.
For spontaneous migration controls and chemorepulsion (CR) assays, 31 μl of assay medium is pipetted into the lower well of the transmigration apparatus (FIGS. 5-6). […]

B cells = experiment: as above; type: cell-based, human; parameters: key: ratio of chemorepulsion (CR) to spontaneous migration (SM), CR/SM; details: mean of three donors at concentration of highest activity
Description: as §1, §2, §3
(§4) For spontaneous migration controls and chemorepulsion (CR) assays, 31 μl of assay medium is pipetted into the lower well of the transmigration apparatus (FIGS. 5-6). For spontaneous migration controls and chemoattraction (CA) assays, 29 μl of assay medium is pipetted into upper chamber of the transmigration apparatus (FIG. 5). For CR, the upper well assay medium contains the agent or candidate chemorepellent. […]

Neutrophils = experiment: as above; type: cell-based, human
CD4+ = experiment: as above; type: cell-based, human; details: mean of three donors at concentration of highest activity, range 0.00125-1.25 μM
Description: as §1, §2, §3, §4

[1] = test system: Human primary neutrophils; experiment: Trans-well migration assay (Example 3 method), unimodal fugetaxin test; type: cell-based; parameters: key to Unimodal fugetaxin hit, Neutrophils: A “+” in the Table indicates a positive hit as a unimodal fugetaxin, as that term is defined herein, for that particular cell type; details: for Unimodal fugetaxin hit, Neutrophils: human neutrophils, methods of Example 3
Monocyte = experiment: Trans-well migration assay (Example 1), net migratory response; details: Monocyte; net observed response
Description: Prior to beginning the assay 0.5% Fetal Calf Serum (FCS) in Iscove's Modified Dulbecco's Medium (IMDM) is prepared and stored on ice (Assay Medium). Migratory cells at a concentration of 2×10^7 cells/ml are suspended in Assay Medium. T-cells isolated from donor blood or buffy coats are allowed to rest overnight in Assay Medium at 37° C. in 5% CO2. Neutrophils, monocytes and B cells are utilized as soon as they are purified from donor blood or other source of human origin. Four serial (10×) dilutions of the ligand are then prepared in Assay Medium (normally 10 μg/ml to 0.01 μg/ml).
Plates are removed from the packaging, leaving the membrane behind and intact. The membrane is set aside. Into each well is pipetted 31 μl of solution. For media controls and fugetaxis (chemorepellent) samples, Assay Medium is used. For chemoattraction samples, the appropriate dilution of agent in assay medium is used.
Using a sterile needle, all small bubbles present in each well are popped and the membrane is carefully placed onto the plate, starting at one side and slowly lowering the other edge onto the plate.
Then 29 μl is pipetted into each circle imprinted on the polycarbonate or polyester membrane. For media controls and chemoattraction samples, Assay Medium is used. For fugetaxis (chemorepellent) samples, the appropriate dilution of ligand in assay medium is used.
To each 29 uL aliquot above is added 2 μl of cells (40,000 cells). It is important to ensure that before beginning the cells are well suspended and that they are mixed. This mixing can be accomplished by agitating the tube between each addition.
The plate is then covered with the supplied lid and incubated 1-3 hours in a humidified incubator at 37° C. in 5% CO2. Following the incubation period, the liquid from the top of the plate is removed with a tissue or similar blotting material (e.g. a Kimwipe). The membrane is carefully removed from the top of the plate and discarded. […] Using a multichannel pipettor, each well of the microplate is rinsed with 25 μl Phosphate Buffered Saline (Mediatech #21-040-CV) and transferred to the same wells in the white microplate. Using a multichannel pipettor, 50 μl CellTiter-Glo Luminescent Cell Viability Assay (Promega #G7572) is added to each well and mixed.
The plate is read using the Perkin Elmer Victor^3V plate reader using the Large Aperture Luminescence setting at 8 mm height above the plate with a dwell time of 1 s to quantify the number of migrated cells.
The results reported reflect the net observed migratory response of the cells to the ligand and are not based on the definition of unimodal fugetaxins.

[2] = test system: Human primary CD8+ lymphocytes; experiment: Trans-well migration assay (Example 3 method), unimodal fugetaxin test; type: cell-based; parameters: key: A “+” in the Table indicates a positive hit as a unimodal fugetaxin, as that term is defined herein, for that particular cell type; details: methods of Example 3
[3] = test system: Human primary CD4+ lymphocytes; experiment: as above; type: cell-based; parameters: key: A “+” in the Table indicates a positive hit as a unimodal fugetaxin, as that term is defined herein, for that particular cell type; details: methods of Example 3
CD8+ = experiment: High throughput transmigration assay (Example 9), chemorepulsion; type: cell-based, human; details: mean of three donors at concentration of highest activity, range 0.00125-1.25 μM
Description: as §1, §2, §3, §4

[4] = test system: Eo-HL60 (HL-60 clone 15 differentiated to eosinophil-like phenotype); experiment: Trans-well migration assay (Example 1), net migratory response; type: cell-based, human; details: net observed response
T lymphocytes = experiment: High throughput transmigration assay (Example 9), chemorepulsion; type: cell-based, human; details: one donor, triplicate, ± SD
Description: as §1, §2, §3, §4

[5] = Neutrophils, mean of three donors at concentration of highest activity, range 0.00125-1.25 μM

Molecule	Repellent Index (Monocytes)	Repellent Index (B cells; range 0.00125-1.25 μM)	Repellent Index (Neutrophils; [5])	Repellent Index (CD4+)	Unimodal fugetaxin hit, Neutrophils [1]	Unimodal fugetaxin hit, CD8+ [2]	Unimodal fugetaxin hit, CD4+ [3]	further results
CCL2: chemokine	1.7	1.5						
Elafin: elastase inhibitor (AQEPVKGPVSTKPGSCPIILIRCAMLNPPNRCLKDTDCPGIKKCCEGSCGMACFVPQ; UniProt P19957 61-117, looked up)			2.0	1.3				Repellent Index (Neutrophils; neutrophils, 0.00125 μM, one donor, triplicate, ± SD): 1.33 ± 0.28; Repellent Index (Neutrophils; neutrophils, 0.0125 μM, one donor, triplicate, ± SD): 1.31 ± 0.29; Repellent Index (Neutrophils; neutrophils, 0.125 μM, one donor, triplicate, ± SD): 1.48 ± 0.22; Repellent Index (Neutrophils; neutrophils, 1.25 μM, one donor, triplicate, ± SD): 2.42 ± 0.52
Galectin-3: carbohydrate binding protein (galectin), full-length, purchased; accession P17931/BAA22164/NP_002297			1.6		+	+	+	chemotactic (chemoattractant) versus fugetactic (chemorepellent) response of neutrophils ([1]; neutrophils, 1 hour, FIGS. 3 and 4, at 10 uM where stated): almost three times as fugetactic (chemorepellent) as chemotactic (chemoattractant); Migratory Response (Monocyte): chemorepulsion; Repellent Index (CD8+): 1.3
HSP70: heat shock protein; accession AAA02807			8.8	4.9	+		+	Migratory Response [4]: chemorepulsion; Repellent Index (T lymphocytes; 0.00125 μM): 0.96 ± 0.13; Repellent Index (T lymphocytes; 0.0125 μM): 1.15 ± 0.24; Repellent Index (T lymphocytes; 0.125 μM): 1.65 ± 0.35; Repellent Index (T lymphocytes; 1.25 μM): 14.56 ± 0.61; Repellent Index (CD8+): 11.6
Pam3CSK4 [reference compound]			4.9		+	+	+	Migratory Response [4]: chemorepulsion
B1					+	+	+	Repellent Index (B cells; range 0.01-10 μg/ml): 1.7; Migratory Response (Monocyte): chemorepulsion; Repellent Index (Neutrophils; Neutrophils, mean of three donors at concentration of highest activity, range 0.01-10 μg/ml): 5.5
B2	1.4							
B3	1.4		3.9					
B4		2.0	1.5	1.7				
B5	2.3	2.6						
